# Data published in EP4810508A1, “ARABINOSE DERIVATIVE COMPOUND, AND COMPOSITION COMPRISING SAME FOR PREVENTING OR TREATING DEGENERATIVE BRAIN DISEASES” (Digmbio. Inc., priority 2023, dated 2025).
# Read-outs that look alike come from different tables or passages of the source.
# Tested on: HRE/Luc/HEK293 cells
# Assay: HRE (Hypoxia Response Element) luciferase assay
# Format: cell-based, human
# Details: for fold induction at 10 µM / fold induction at 100 µM: Homo sapiens; for HRE expression: low concentration of 1 µM
# Description: • (a) HRE assay: Confirmation of increased in HRE expression levels by the test substance relative to the vehicle in HRE/Luc/HEK293 cells • * Less than a twofold increase at 100 µM, • ** More than a twofold increase at 100 µM, • *** More than a twofold increase at 10 µM, • **** More than a twofold increase at 1 µM, • Not performed.
# It has been reported that in the brains of AD patients, blood supply is mostly insufficient, resulting in oxygen levels being up to 50% lower than those of normal individuals, leading to increased oxidative stress (ROS) and neuroinflammation. It has also been studied that when the HIF-1α (hypoxia inducible factor-1) factor binds to the HRE (hypoxia response element), it increases VEGF (vascular endothelial growth factor), which promotes the formation of new blood vessels, thereby increasing oxygen levels in the brain and helping to inhibit nerve cell damage.
# A reporter gene containing luciferase, capable of verifying the level of HRE expression, was inserted into HEK-293 human embryonic kidney cells, and HRE/Luc/HEK293 cells were constructed by inserting a plasmid (HRE/Luc) with luciferase attached downstream of the HRE promoter that binds to HIF-1α using lipofectamine (Invitrogen).
# To perform HRE luciferase analysis, HRE/Luc/HEK293 cells were seeded in 96-well culture plates at a cell density of 4 x 10^4 per well in minimal essential medium (MEM) containing 10% fetal bovine serum. After one day, the cell medium was removed and replaced with medium mixed with various concentrations of example compounds. Six hours after compound pretreatment, HRE/Luc/HEK293 cells were cultured under hypoxic conditions (O2 0.1%) for 18 hours. Subsequently, the cells were washed with phosphate buffer, lysed with lysis buffer, and then the luciferase reagent (Promega) for luciferase analysis was added. Afterward, changes in HRE expression levels associated with HIF-1 signaling were evaluated by measuring luminescence using an Infinite200 (Tecan).
# [1] = HEK293, 18 h, Table 2 (Examples 75-109, 114), read-out: HRE-inceasing 10uM
# [2] = HEK293, 18 h, Table 2 (Examples 75-109, 114), read-out: HRE-inceasing 100uM
# [3] = HEK293, 18 h, Table 2 (Examples 37-74, 52), read-out: HKt-increasing 10uM
# [4] = HEK293, 18 h, Table 2 (Examples 37-74, 52), read-out: HKt-increasing 100uM
# [5] = HEK293, fold increase of HRE expression, hypoxic conditions (O2 0.1%) 18 hours, Table 2, read-out: HRE-increasing 10uM
# [6] = HEK293, fold increase of HRE expression, hypoxic conditions (O2 0.1%) 18 hours, Table 2, read-out: HRE-increasing 100uM
Compound,fold induction at 10 µM [1],fold induction at 100 µM [2],fold induction at 10 µM [3],fold induction at 100 µM [4],also measured
"COc1ccc(Cc2ccc(O[C@H]3OC[C@H](O)[C@H](O)[C@H]3N=[N+]=[N-])cc2)cc1 [Example 77, (3S,4R,5R,6R)-5-azido-6-(4-(4-methoxybenzyl)phenoxy)tetrahydro-2H-pyran-3,4-diol]",1,1.3,–,–,–
"CC(C)c1ccc(Oc2ccc(O[C@H]3OC[C@H](O)[C@H](O)[C@H]3O)c(Cl)c2)cc1 [Example 57, (2R,3R,4S,5S)-2-(2-chloro-4-(4-isopropylphenoxy)phenoxy)tetrahydro-2H-pyran-3,4,5-triol]",–,–,3.2,2.8,HRE expression: more than threefold
"COc1ccc(Cc2ccc(O[C@H]3OC[C@H](O)[C@H](O)[C@H]3O)cc2Cl)cc1 [Example 38, (2R,3R,4S,5S)-2-(3-chloro-4-(4-methoxybenzyl)phenoxy)tetrahydro-2H-pyran-3,4,5-triol]",–,–,1.3,2.2,–
"CC[C@H]1CC[C@H](Cc2ccc(O[C@H]3OC[C@H](O)[C@H](O)[C@H]3O)cc2)CC1 [Example 73, (2R,3R,4S,5S)-2-(4-(((1R,4R)-4-ethylcyclohexyl)methyl)phenoxy)tetrahydro-2H-pyran-3,4,5-triol]",–,–,2.1,3,–
"COc1cc(Cc2ccc(O[C@H]3OC[C@H](O)[C@H](O)[C@H]3O)cc2)cc(OC)c1OC [Example 18, (2R,3R,4S,5S)-2-(4-(3,4,5-trimethoxybenzyl)phenoxy) tetrahydro-2H-pyran-3,4,5-triol]",–,–,–,–,fold induction at 10 µM [5]: 1.2; fold induction at 100 µM [6]: 1.3
"COc1ccc(-c2ccc(O[C@H]3OC[C@H](O)[C@H](O)[C@H]3O)cc2)cn1 [Example 85, (2R,3R,4S,5S)-2-(4-(6-methoxypyridin-3-yl)phenoxy)tetrahydro-2H-pyran-3,4,5-triol]",1.3,2.6,–,–,–
"O[C@@H]1[C@@H](O)[C@@H](Oc2ccc(Cc3ccc4ccccc4c3)cc2)OC[C@@H]1O [Example 19, (2R,3R,4S,5S)-2-(4-(naphthalen-2-ylmethyl)phenoxy) tetrahydro-2H-pyran-3,4,5-triol]",–,–,–,–,fold induction at 10 µM [5]: 1.3; fold induction at 100 µM [6]: 1.8
"COc1ccc(-c2ccc(O[C@H]3OC[C@H](O)[C@H](O)[C@H]3O)cc2)cc1 [Example 84, (2R,3R,4S,5S)-2-((4'-methoxy-[1,1'-biphenyl]-4-yl)oxy)tetrahydro-2H-pyran-3,4,5-triol]",2.5,3.5,–,–,–
"COc1ccc(Cc2ccc(O[C@H]3OC[C@H](O)[C@H](O)[C@H]3O)c(Cl)c2)cc1 [Example 51, (2R,3R,4S,5S)-2-(2-chloro-4-(4-methoxybenzyl)phenoxy)tetrahydro-2H-pyran-3,4,5-triol]",–,–,1.3,2.9,–
"COc1ccc(Cc2ccc(O[C@H]3OC[C@H](O)[C@H](O)[C@H]3O)cc2)cc1Cl [Example 37, (2R,3R,4S,5S)-2-(4-(3-chloro-4-methoxybenzyl)phenoxy)tetrahydro-2H-pyran-3,4,5-triol]",–,–,1.1,1.3,–
"O[C@@H]1[C@@H](O)[C@H](Oc2ccc(CN3CCOCC3)cc2)OC[C@@H]1O [Example 76, (2S,3R,4S,5S)-2-(4-(morpholinomethyl)phenoxy)tetrahydro-2H-pyran-3,4,5-triol]",< 1,1,–,–,–
"COc1ccc2oc(-c3ccc(O[C@@H]4OC[C@H](O)[C@H](O)[C@H]4O)c(Cl)c3)nc2c1 [Example 102, (2S,3R,4S,5S)-2-(2-chloro-4-(5-methoxybenzo[d]oxazol-2-yl)phenoxy)tetrahydro-2H-pyran-3,4,5-triol]",3.1,1.8,–,–,HRE expression: more than threefold
"CC(C)c1ccc(-c2ccc(O[C@H]3OC[C@H](O)[C@H](O)[C@H]3O)cc2)cc1 [Example 86, (2R,3R,4S,5S)-2-((4'-isopropyl-[1,1'-biphenyl]-4-yl)oxy) tetrahydro-2 H-pyran-3,4,5-triol]",1.9,3.2,–,–,–
"CC(C)c1ccc(-c2ccc(Cc3ccc(O[C@H]4OC[C@H](O)[C@H](O)[C@H]4O)cc3)cc2)cc1 [Example 52, (2R,3R,4S,5S)-2-(4-((4'-isopropyl-[1,1'-biphenyl]-4-yl)methyl)phenoxy)tetrahydro-2H-pyran-3,4,5-triol]",–,–,2,3.6,–
"CSc1ccc(Cc2ccc(O[C@H]3OC[C@H](O)[C@H](O)[C@H]3O)cc2)cc1 [Example 11, (2R,3R,4S,5S)-2-(4-(4-(methylthio)benzyl)phenoxy)tetrahydro-2H-pyran-3,4,5-triol]",–,–,–,–,fold induction at 10 µM [5]: 2.4; fold induction at 100 µM [6]: 2.4; HRE assay (increase in HRE expression levels by the test substance relative to the vehicle in HRE/Luc/HEK293 cells): •••
"CC(C)c1ccc(Cc2ccc(O[C@H]3OC[C@H](O)[C@H](O)[C@H]3O)cc2F)cc1 [Example 48, (2R,3R,4S,5S)-2-(3-fluoro-4-(4-isopropylbenzyl)phenoxy)tetrahydro-2H-pyran-3,4,5-triol]",–,–,1.3,2.3,–
"CC(C)[C@H]1CC[C@H](Cc2ccc(O[C@H]3OC[C@H](O)[C@H](O)[C@H]3O)cc2)CC1 [Example 74, (2R,3R,4S,5S)-2-(4-(((1R,4R)-4-isopropylcyclohexyl)methyl)phenoxy)tetrahydro-2H-pyran-3,4,5-triol]",–,–,1.9,3,–
"COc1ccc2oc(-c3ccc(O[C@H]4OC[C@H](O)[C@H](O)[C@H]4O)c(Cl)c3)nc2c1 [Example 103, (2R,3R,4S,5S)-2-(2-chloro-4-(5-methoxybenzo[d]oxazol-2-yl)phenoxy)tetrahydro-2H-pyran-3,4,5-triol]",2.6,2.9,–,–,–
"Cc1ccc2oc(-c3ccc(O[C@@H]4OC[C@H](O)[C@H](O)[C@H]4O)c(F)c3)nc2c1 [Example 104, (2S,3R,4S,5S)-2-(2-fluoro-4-(5-methylbenzo[d]oxazol-2-yl)phenoxy)tetrahydro-2H-pyran-3,4,5-triol]",3.6,2,–,–,HRE expression: more than threefold
"CC(C)c1ccc(Oc2ccc(O[C@H]3OC[C@H](O)[C@H](O)[C@H]3O)c(F)c2)cc1 [Example 68, (2R,3R,4S,5S)-2-(2-fluoro-4-(4-isopropylphenoxy)phenoxy)tetrahydro-2H-pyran-3,4,5-triol]",–,–,4.3,4.4,HRE expression: more than threefold
"Cc1ccc2oc(-c3ccc(O[C@H]4OC[C@H](O)[C@H](O)[C@H]4O)cc3)nc2c1 [Example 109, (2R,3R,4S,5S)-2-(4-(5-methylbenzo[d]oxazol-2-yl)phenoxy)tetrahydro-2H-pyran-3,4,5-triol]",3.2,4.4,–,–,HRE expression: more than threefold
"CC(C)c1ccc(Oc2ccc(O[C@H]3OC[C@H](O)[C@H](O)[C@H]3N=[N+]=[N-])cc2)cc1 [Example 69, (3S,4R,5R,6R)-5-azido-6-(4-(4-isopropylphenoxy)phenoxy) tetrahydro-2H-pyra-3,4-diol]",–,–,1.7,3,–
"O[C@@H]1[C@@H](O)[C@@H](Oc2ccc(CC3CCCC3)cc2)OC[C@@H]1O [Example 21, (2R,3R,4S,5S)-2-(4-(cyclopentylmethyl)phenoxy)tetrahydro-2H-pyran-3,4,5-triol]",–,–,–,–,fold induction at 10 µM [5]: 2.3; fold induction at 100 µM [6]: 2.4
"COc1ccc(Cc2ccc(O[C@H]3OC[C@H](O)[C@H](O)[C@H]3O)cc2)c(F)c1 [Example 50, (2R,3R,4S,5S)-2-(4-(2-fluoro-4-methoxybenzyl)phenoxy)tetrahydro-2H-pyran-3,4,5-triol]",–,–,1,1.4,–
"CC(C)c1ccc(Oc2ccc(O[C@H]3OC[C@H](O)[C@H](O)[C@@H]3F)cc2)cc1 [Example 65, (3S,4S,5S,6R)-5-fluoro-6-(4-(4-isopropylphenoxy)phenoxy)tetrahydro-2H-pyran-3,4-diol]",–,–,2.6,2.4,–
"CC(C)c1ccc(Oc2ccc(O[C@H]3OC[C@H](O)[C@H](O)[C@H]3F)cc2)cc1 [Example 63, (3S,4S,5R,6R)-5-fluoro-6-(4-(4-isopropylphenoxy)phenoxy)tetrahydro-2H-pyran-3,4-diol]",–,–,2.4,2.3,–
